# “Also recorded” adds a separate entry of the source. Where two headings read alike, the source gives them in different places.
# Tests used:
# [1] = tested on: eNOS; details: atorvastatin 3-day pretreatment, 1 mg/kg/d; cited from earlier work
# [2] = tested on: calcium dependent NOS; details: atorvastatin 3-day pretreatment, 1 mg/kg/d; cited from earlier work
# [3] = tested on: Akt; test: Western blot of myocardial Akt; type: in vivo, rat; details: rats, 3-day oral pretreatment, immunoblot, result in words
# Protocol: (§1) Adenosine 5' triphosphate [γ32P] […] The supernatant was collected and the total protein concentration was determined using Lowry Protein Assay. The protein samples were subjected to SDS-PAGE with 4-20% gradient polyacrylamide gel and transferred to pure nitrocellulose membrane (0.45 μm) (Bio-Rad). After blocking with 5% skim milk in Tris-buffered saline, the membrane was incubated overnight at 4° C. with primary antibodies against eNOS, Akt, […]-eNOS, […]-eNOS, […]-Akt, and PTEN, and secondarily with HRP-conjugated anti-mouse or anti-rabbit antibodies. The immunoblots were developed using ECL western Blotting Detection Reagent (Amersham). The protein signals were pictured by an image-scanner and analyzed using Image J software (National Institutes of health, USA). The strength of each signal was normalized to the corresponding β-actin stain signal. Data are expressed as a ratio between the protein and the corresponding β-actin signal density.
# [4] = tested on: myocardial infarct size; details: 3-day pretreatment, cited from earlier work
# [5] = tested on: eNOS; test: Western blot of myocardial eNOS; type: in vivo, rat; details: rats, 3-day oral pretreatment, immunoblot, result in words
# Protocol: as §1
# [6] = rat; 16 hours after the third dose, 10 mg/kg/d; cited from earlier work
# [7] = tested on: myocardial adenosine; test: Myocardial adenosine levels (HPLC); type: in vivo, rat; details: rats; 3-day oral pretreatment; result in words
# Protocol: Adenosine 5′ triphosphate [γ32P] […] Adenosine was analyzed by high performance liquid chromatography (HPLC) according to the procedure of Wojcik and Neff {Wojcik, 1982 #325}. […] The protein concentration was determined by Lowry assay. Ten volumes of 0.25 M Ba(OH)2 was added and the samples were centrifuged at 30,000×g for 10 minutes. The supernatants were then transferred to a conical tube and 5 μl of chloroacetaldehyde added to 20 μl of supernatant. The tubes were capped, mixed and submerged in a boiling water bath for 10 min. The samples were analyzed by HPLC using a Waters C18 reversed phase 150 mm×4.6 mm column. […] The excitation monochromator was set to a wavelength of 270 nm and the cutoff wavelength of the emission filter was 389 nm.
# [8] = tested on: rat model of myocardial ischemia-reperfusion injury; test: Rat myocardial ischemia-reperfusion infarct size protocol; type: in vivo; details: rats; for infarct size (as a percentage of the AR): FIG. 1, 3-day oral pretreatment; for infarct size: 3-day oral pretreatment (atorvastatin 2 mg/kg/d, cilostazol 20 mg/kg/d)
# Protocol: Adenosine 5′ triphosphate [γ32P]
# Hearts were excised and the left ventricle was sliced transversely into 6 sections. Slices were weighed and incubated for 15 minutes at 37° C. in 1% buffered (pH=7.4) 2,3,5-triphenyl-tetrazolium-chloride (TTC), fixed in a 10% formaldehyde and photographed in order to identify the AR (uncolored by the blue dye), the infarct size (unstained by TTC), and the non-ischemic zones (colored by blue dye). The area of AR and infarct size in each slice were determined by planimetry, converted into percentages of the whole for each slice, and multiplied by the weight of the slice and the results summed to obtain the weight of the myocardial AR and infarct size.
# [9] = tested on: PTEN; test: Western blot of myocardial PTEN; type: in vivo, rat; details: rats, 3-day oral pretreatment, immunoblot, result in words
# Protocol: as §1
# [10] = tested on: permanent middle cerebral artery occlusion; details: mouse; 30 mg/kg intraperitoneally three times (12 h before, 1 h before, just after ischemia); cited from earlier work
# [11] = tested on: Akt; details: rat; oral 30 mg/kg after 2 hours of middle cerebral artery occlusion; cited from earlier work
# [12] = cited from earlier work
# [13] = tested on: myocardial infarct size; details: rabbit; intravenous 1 mg/kg/min for 5 min before myocardial ischemia; cited from earlier work
# [14] = 41 patients; cilostazol 200 mg/d versus aspirin 250 mg/d; cited from earlier work
# [15] = tested on: middle cerebral artery occlusion; details: rat, cited from earlier work
# [16] = tested on: cAMP-dependent protein kinase (PKA); test: Myocardial protein kinase A (PKA) activity, rat; type: in vivo; details: rats; 3-day oral pretreatment; myocardial samples; result in words
# [17] = 30 min ischemia, 4 h reperfusion, mean±SEM
smiles,measurement,setting,value
CC(C)c1c(C(=O)Nc2ccccc2)c(-c2ccccc2)c(-c2ccc(F)cc2)n1CC[C@@H](O)C[C@@H](O)CC(=O)O [atorvastatin],myocardial levels of P-eNOS,[1],did not affect
same,calcium dependent NOS activity,[2],did not affect
same,myocardial levels of Ser-473 P-Akt,[3],"small, statistically significant effect"
same,myocardial total Akt levels,[3],did not affect
same,infarct size,[4]; 1 mg/kg/d,did not limit infarct size
same,infarct size,"[4]; oral, 2 mg/kg/d",does not affect infarct size
same,infarct size,"[4]; oral, 10 and 75 mg/kg/d",reduces infarct size
same,myocardial levels of Ser-1177 P-eNOS,[5],but not on Ser-1177 P-eNOS and Ser-633 P-eNOS levels; also recorded: did not increase
same,myocardial total eNOS levels,[5],did not affect
same,blood levels of atorvastatin,[6],comparable to those seen in humans treated with atorvastatin 80 mg/d
same,myocardial adenosine levels,[7],small increase in myocardial adenosine levels
same,infarct size (as a percentage of the AR),[8]; result in words,did not affect infarct size
same,infarct size,[8]; [17],128 ± 8 mg
same,infarct size,[8]; result in words,did not affect infarct size
same,myocardial PTEN levels,[9],no effect
O=C1CCc2cc(OCCCCc3nnnn3C3CCCCC3)ccc2N1 [cilostazol],brain infarct size measured at 24 h,[10],reduced brain infarct size
same,Akt phosphorylation,[11],augmented Akt phosphorylation
same,myocardial levels of Ser-473 P-Akt,[3],augmented myocardial levels
same,myocardial total Akt levels,[3],did not affect
same,myocardial levels of Ser-473 P-Akt,[3]; listed as CIL,significantly increased
same,6-month restenosis rate,"[12]; 50 patients, primary stenting for ST elevation acute myocardial infarction, cilostazol 100 mg BID versus aspirin alone",0%
same,in-stent stenosis,"[12]; 70 patients, Palmaz-Schatz stenting, cilostazol 200 mg/d, aspirin 81 mg/d",8.6%
same,6-month restenosis after successful coronary stenting,"[12]; CREST, cilostazol 100 mg bid, all patients on clopidogrel 30 days and aspirin 6 months",22.0%
same,9-month target lesion revascularization rate per patient,"[12]; RACTS trial, cilostazol 100 mg bid 6 months, ticlopidine 250 mg bid 1 month",22.9%
same,myocardial levels of Ser-633 P-eNOS,[5],augmented myocardial levels
same,myocardial levels of Ser-1177 P-eNOS,[5],augmented myocardial levels
same,myocardial total eNOS levels,[5],did not affect
same,myocardial levels of Ser-633 P-eNOS,[5]; listed as CIL,significantly increased
same,myocardial levels of Ser-1177 P-eNOS,[5]; listed as CIL,significantly increased
same,effect of preconditioning by 2 min of ischemia,[13],potentiates the effect of preconditioning
same,myocardial infarct size,[13],does not affect myocardial infarct size
same,6-month angiographic outcomes,[14],better 6-month angiographic outcomes than aspirin
same,minimal lumen diameter at follow-up,[14],larger
same,percent diameter stenosis,[14],smaller
same,plaque area (intravascular ultrasound),[14],smaller
same,brain infarct size,"[15]; 2 h occlusion, 24 h reperfusion, oral cilostazol 30 mg/kg, aspirin 300 mg/kg, clopidogrel 30 mg/kg",reduced brain infarct size
same,brain infarct size,[15]; oral 30 mg/kg at 5 min and 4 h after completion of 2 hours of middle cerebral artery occlusion,reduces brain infarct size
same,cAMP-dependent protein kinase (PKA) activity,[16],significantly increased
same,myocardial adenosine levels,[7],small increase in myocardial adenosine levels
same,infarct size (as a percentage of the AR),[8]; result in words,significantly smaller than in the control group
same,infarct size,[8]; [17],56 ± 4 mg
same,infarct size,[8]; result in words,reduced infarct size; also recorded: significant reduction in infarct size
same,myocardial PTEN levels,[9],significantly reduce PTEN levels
same,myocardial PTEN levels,[9]; listed as CIL,significantly decreased

# From US20110092456A1, “Methods of increasing cAMP levels and uses thereof” (priority 2009, published 2011)
